Measurements published in US20240009165A1, “GRISEOFULVIN AS AN ADJUNCT DRUG FOR THE TREATMENT OF CEREBRAL AND SEVERE MALARIA” (priority 2020, published 2024).

What was measured:
P. berghei ANKA [1] = experiment: Cerebral malaria (CM) protection and mortality of PbWT-infected mice treated with griseofulvin; format: in vivo
Excerpt: The present invention evaluated the potential of griseofulvin in preventing CM and treated WT-infected C57BL/6 mice from day 4 when the blood parasitemia was around 2%, and examined for CM pathogenesis. […] While ˜80% of the control mice succumbed to CM within day 10, more than 80% of the griseofulvin-treated mice were protected from CM. […] While the anemia mortality in CM-escaped control mice occurred within day 17, more than 80% of the griseofulvin-treated mice could survive beyond day 20 with almost 50% of them surviving even beyond day 24. […] To confirm that the CM protection is due to inhibition of parasite heme synthesis, the present invention analyzed heme synthesis in griseofulvin-treated and -untreated WT parasites by incubating the in vivo-treated pRBCs in vitro with ^14C-ALA (committed precursor of heme synthesis) for 9 h. There was around 60% decrease in the ^14C-labelling of free heme in griseofulvin-treated parasites. […] As observed for the KO parasites, the total Hz content in the griseofulvin-treated parasites was around 50-60% less when compared with untreated parasites and there was also close to 60% decrease in the free heme levels.
(§1) Routine propagation of P. berghei in mice and CM experiments. P. berghei ANKA WT and KO parasites were propagated in C57BL/6 male/female mice of 7-8 weeks old. Peripheral blood parasitemia was monitored by performing light microscopy for Giemsa stained thin blood smears prepared from tail vein blood. When the blood parasitemia was around 10%, 10^5 P. berghei ANKA WT or 10^5/10^7 ALAS/FC KO parasites were collected and injected intraperitoneally in 7-8 weeks old C57BL/6 male/female naïve mice to initiate CM experiments. Growth curve analysis was carried out by monitoring the blood parasitemia. The development and progression of ECM were monitored by examining RMCBS for neurological symptoms. To assess BBB integrity, Evans blue uptake assays were carried out by injecting 200 μl of 2% Evans blue in PBS intravenously and examining the extravasation of dye after one hour in the brain of the infected mice that were transcardially perfused with PBS. The extent of BBB damage was quantified by incubating the brain samples in formamide at 37° C. for 48 h, extracting the Evans blue and measuring the absorbance at 620 nm.
Griseofulvin treatment in mice. Griseofulvin was prepared by dissolving 1 or 2 mg in 40 μl DMSO and then making up the volume to 200 μl with 10% solutol HS 15 in saline. The mixture was vortexed thoroughly for 10 min to form an emulsion and injected intraperitoneally into the mice. All single dose injections were carried out at 06:00 h and double dose injections were carried out at 06:00 h and 18:00 h for the respective days. […]

P. berghei ANKA [2] = experiment: Growth curve analysis (peripheral blood parasitemia) in treated mice; format: in vivo; conditions: 2 mg dose per day on day 4, 5, 6, 7 and 8; C57BL/6 mice
Excerpt: The present invention evaluated the potential of griseofulvin in preventing CM and treated WT-infected C57BL/6 mice from day 4 when the blood parasitemia was around 2%, and examined for CM pathogenesis. […] While ˜80% of the control mice succumbed to CM within day 10, more than 80% of the griseofulvin-treated mice were protected from CM. […] While the anemia mortality in CM-escaped control mice occurred within day 17, more than 80% of the griseofulvin-treated mice could survive beyond day 20 with almost 50% of them surviving even beyond day 24. […] To confirm that the CM protection is due to inhibition of parasite heme synthesis, the present invention analyzed heme synthesis in griseofulvin-treated and -untreated WT parasites by incubating the in vivo-treated pRBCs in vitro with ^14C-ALA (committed precursor of heme synthesis) for 9 h. […]
Routine propagation of P. berghei in mice and CM experiments. […] Peripheral blood parasitemia was monitored by performing light microscopy for Giemsa stained thin blood smears prepared from tail vein blood. […] The development and progression of ECM were monitored by examining RMCBS for neurological symptoms. […] The extent of BBB damage was quantified by incubating the brain samples in formamide at 37° C. for 48 h, extracting the Evans blue and measuring the absorbance at 620 nm. […]

parasite heme synthesis = experiment: 14C-ALA labelling of free heme in in vivo-treated pRBCs; format: cell-based, P. berghei; conditions: in vivo-treated pRBCs incubated in vitro with 14C-ALA for 9 h; vs untreated WT parasites
Excerpt: The present invention evaluated the potential of griseofulvin in preventing CM and treated WT-infected C57BL/6 mice from day 4 when the blood parasitemia was around 2%, and examined for CM pathogenesis. […] While ˜80% of the control mice succumbed to CM within day 10, more than 80% of the griseofulvin-treated mice were protected from CM. […] While the anemia mortality in CM-escaped control mice occurred within day 17, more than 80% of the griseofulvin-treated mice could survive beyond day 20 with almost 50% of them surviving even beyond day 24. […]
Labelling studies with ^14C-ALA. […] For ^14C-ALA labelling, blood samples were collected from griseofulvin treated and control WT-infected mice around 16:00 h and the labelling was carried out for 9 h at a radioactivity of […]. […] The upper phase was separated, dried under nitrogen stream, dissolved in methanol and analysed by TLC on silica gel using the mobile phase 2,6-lutidine and water (5:3 v/v) in ammonia atmosphere. The intensity of radiolabelling was scanned using Biomolecular Imager by exposing the TLC sheets to phosphorimager screen and the radioactive counts were measured.

P. berghei ANKA [3] = experiment: Evans blue extravasation in the brain (BBB integrity); format: in vivo; conditions: griseofulvin-treated WT-infected mice; brain on day 8 post-infection
Excerpt: as §1

P. berghei ANKA [4] = experiment: Histochemical and immunofluorescence analyses of brain sections; format: in vivo; conditions: griseofulvin-treated WT-infected mice
Protocol: Histological and immunofluorescence analyses of cerebral pathology in the brain of infected mice. For H&E staining to assess vascular blockage, hemorrhages and demyelination, brain samples were fixed with formalin for 72 hours at room temperature. After dehydrating with ethanol and treating with xylene, paraffin embedded blocks were made and sections of 7 μm thickness were prepared using rotary microtome. The sections were then processed and stained with H&E using standard protocols. Immunohistochemical analysis of IgG extravasation in the brain sections was carried out as described. Brain sections of 30 μm thickness was antigen retrieved by treating them at 95° C. for 30 min in sodium citrate buffer pH 6.0, followed by blocking with 3% H2O2 at room temperature for 30 min to prevent endogenous peroxidase activity. The sections were then incubated with HRP-conjugated goat anti-mouse IgG at 1:250 dilution in PBS containing 0.3% Triton X-100 and 0.1% BSA, followed by developing with diaminobenzidine tetrahydrochloride and counterstaining with hematoxilin. Immunofluorescence analysis of brain sections for parasite sequestration was carried out by fixing the brain samples in 4% paraformaldehyde in PBS containing 20% sucrose for 24 h at 4° C. and cryoprotecting them for 48 h in PBS containing 20% sucrose. Coronal sections of 30 μm thickness was prepared using cryostat microtome and antigen retrieval was carried out by treating them at 95° C. for 30 min in sodium citrate buffer pH 9.0. After blocking with 1% BSA, the sections were incubated with anti-CD31 mouse monoclonal antibody conjugated with Alexa Fluor 594 and anti-PbGAPDH rabbit polyclonal serum or anti-mouse CD3 rat monoclonal antibody for 16 h at 4° C. The sections were then treated with FITC-conjugated donkey anti-rabbit IgG or FITC-conjugated goat anti-rat IgG (1:200 dilution), followed by 4′,6-diamidino-2-phenylindole (DAPI) staining. Anti-mouse β-APP rabbit polyclonal antibody was used in 1:200 dilution.

hemozoin (Hz) formation = experiment: Hemozoin and free heme estimation in parasites; format: in vivo, P. berghei
Protocol: Heme, Hz, hemoglobin and hemopexin estimations. Free heme levels in the plasma samples of WT- and KO-infected mice were quantified using Hemin colorimetric assays. The assay is specific for free heme and it utilizes peroxidase activity of hemin to facilitate the conversion of a colorless probe to a strongly colored compound with absorbance at 570 nm. The quantification of free heme in the parasite lysates was carried out by resuspending the parasite pellets in 5 volumes of hypotonic lysis buffer containing 5 mM Tris pH 7.5 with protease inhibitors and incubating them in ice for 30 min. The lysates were then centrifuged at 20,000 g for 20 min, 4° C., and the supernatants obtained were used for free heme estimation as mentioned above for the plasma samples. The Hz content of the WT and KO parasite pellets was estimated as described. The parasite pellet was resuspended in 1 ml of 100 mM sodium acetate buffer, pH 5.0 and left at 37° C. for overnight, followed by centrifugation at 10,000 g for 5 min. The resultant pellet was resuspended in 100 mM Tris buffer pH 8.0 containing 2.5% SDS and incubated at 37° C. for 30 min, followed by centrifugation at 10,000 g for 5 min. The pellet obtained was washed once with 100 mM alkaline bicarbonate pH 9.2 and then with distilled water. The final Hz pellet was dissolved in 100 mM NaOH containing 2.5% SDS, and the absorbance was measured at 405 nm. The supernatants of sodium acetate and Tris SDS steps were collected to estimate the protein content by Micro BCA protein assay kit and heme content of the Hz was expressed per mg of total protein. […] After repeating this step thrice, the pellets were solubilized in 100 mM NaOH containing 2% SDS and 3 mM EDTA, and the absorbance was measured at 405 nm. In parallel, the parasite load in the organs was examined by quantitative PCR (qPCR) analysis carried out with Pb18SrRNA primers for the total RNA isolated from 30 mg tissue of the organs. […] Hemoglobin and hemopexin levels in the plasma samples of WT- and KO-infected mice were measured by ELISA.

P. berghei ANKA [5] = experiment: Plasma heme, hemopexin and hemoglobin estimation in infected mice; format: in vivo; conditions: griseofulvin-treated WT-infected mice
Protocol: Heme, Hz, hemoglobin and hemopexin estimations. Free heme levels in the plasma samples of WT- and KO-infected mice were quantified using Hemin colorimetric assays. The assay is specific for free heme and it utilizes peroxidase activity of hemin to facilitate the conversion of a colorless probe to a strongly colored compound with absorbance at 570 nm. The quantification of free heme in the parasite lysates was carried out by resuspending the parasite pellets in 5 volumes of hypotonic lysis buffer containing 5 mM Tris pH 7.5 with protease inhibitors and incubating them in ice for 30 min. The lysates were then centrifuged at 20,000 g for 20 min, 4° C., and the supernatants obtained were used for free heme estimation as mentioned above for the plasma samples. The Hz content of the WT and KO parasite pellets was estimated as described. The parasite pellet was resuspended in 1 ml of 100 mM sodium acetate buffer, pH 5.0 and left at 37° C. for overnight, followed by centrifugation at 10,000 g for 5 min. The resultant pellet was resuspended in 100 mM Tris buffer pH 8.0 containing 2.5% SDS and incubated at 37° C. for 30 min, followed by centrifugation at 10,000 g for 5 min. The pellet obtained was washed once with 100 mM alkaline bicarbonate pH 9.2 and then with distilled water. The final Hz pellet was dissolved in 100 mM NaOH containing 2.5% SDS, and the absorbance was measured at 405 nm. The supernatants of sodium acetate and Tris SDS steps were collected to estimate the protein content by Micro BCA protein assay kit and heme content of the Hz was expressed per mg of total protein. To estimate the Hz content in the spleen and liver of the WT- and KO-infected mice, 50 mg tissue of the respective organs was homogenized in 50 mM Tris pH 8.0 containing 50 mM NaCl, 5 mM CaCl2 and 1% Triton X-100, and incubated for 12 h at 37° C. in the presence of proteinase K. The lysates were sonicated and centrifuged at 15,000 g for 30 min. The pellets obtained were resuspended with 100 mM sodium bicarbonate containing 2% SDS and sonicated, followed by centrifugation at 15,000 g for 15 min. After repeating this step thrice, the pellets were solubilized in 100 mM NaOH containing 2% SDS and 3 mM EDTA, and the absorbance was measured at 405 nm. In parallel, the parasite load in the organs was examined by quantitative PCR (qPCR) analysis carried out with Pb18SrRNA primers for the total RNA isolated from 30 mg tissue of the organs. After normalizing with respect to the parasite load, the total heme content of the Hz isolated was expressed per mg weight of the organ. Hemoglobin and hemopexin levels in the plasma samples of WT- and KO-infected mice were measured by ELISA.

Plasmodium falciparum = conditions: humans infected with Plasmodium falciparum; reference (34); cited from earlier work
P. berghei ANKA [6] = experiment: α,β-arteether alone or with griseofulvin in preventing CM in mice; format: in vivo
Protocol: Griseofulvin treatment in mice. Griseofulvin was prepared by dissolving 1 or 2 mg in 40 μl DMSO and then making up the volume to 200 μl with 10% solutol HS 15 in saline. The mixture was vortexed thoroughly for 10 min to form an emulsion and injected intraperitoneally into the mice. All single dose injections were carried out at 06:00 h and double dose injections were carried out at 06:00 h and 18:00 h for the respective days. Control mice were injected with the solvent. α,β-arteether (E MAL) was administered intramuscularly. For experiments involving the combination of α,β-arteether and griseofulvin, α,β-arteether was administered intramuscularly at 06:00 h on day 6, followed by two doses of griseofulvin at 24 h interval (at 09:00 h on day 6 and 7).

[7] = griseofulvin-treated WT parasites vs untreated

SMILES	mice protected from CM (P. berghei ANKA [1]; WT-infected C57BL/6 mice, single dose of 2 mg/day i.p. from day 4 until day 8, ~80% of control mice succumbed to CM within day 10)	delay in mortality due to anemia (P. berghei ANKA [1]; griseofulvin-treated WT-infected C57BL/6 mice vs CM-escaped control mice)	mice surviving beyond day 24 (P. berghei ANKA [1]; griseofulvin-treated WT-infected mice)	mice surviving beyond day 20 (P. berghei ANKA [1]; griseofulvin-treated WT-infected mice, anemia mortality in CM-escaped control mice within day 17)	growth curves of WT parasites in treated and untreated mice (P. berghei ANKA [2])	decrease in 14C-labelling of free heme (parasite heme synthesis)	Evans blue extravasation in the brain (P. berghei ANKA [3])	intracerebral hemorrhages in brain sections (P. berghei ANKA [4]; H&E)	accumulation of CD3+ T cells in the cerebral vasculature (P. berghei ANKA [4]; immunofluorescence)	accumulation of parasites in the cerebral vasculature (P. berghei ANKA [4]; immunofluorescence)	Hz content by light microscopy (hemozoin (Hz) formation; Giemsa-stained peripheral smears and paraformaldehyde-fixed pRBCs of treated mice)	decrease in free heme levels in parasites (hemozoin (Hz) formation; [7])	total Hz content, less than untreated parasites (hemozoin (Hz) formation; [7])	plasma heme/hemopexin ratio (P. berghei ANKA [5])	plasma level of Hb (P. berghei ANKA [5])	plasma level of heme (P. berghei ANKA [5])	plasma level of hemopexin (P. berghei ANKA [5])	in vivo parasite growth in humans (Plasmodium falciparum)	peripheral parasitemia in blood smears (P. berghei ANKA [6]; single intramuscular dose of 0.25 mg/mouse on day 6)	WT-infected mice developing CM (P. berghei ANKA [6]; single intramuscular dose of 0.25 mg/mouse on day 6, parasitemia around 10%)
COC1=CC(=O)C[C@@H](C)[C@]12Oc1c(Cl)c(OC)cc(OC)c1C2=O [griseofulvin]	more than 80%	significant delay	around 50%	more than 80%	very much comparable	around 60%	less Evans blue extravasation	absence of intracerebral hemorrhages	lack of accumulation	lack of accumulation	less Hz content	around 60%	50-60%	comparable to that of the KO-infected mice	comparable to that of the KO-infected mice	comparable to that of the KO-infected mice	comparable to that of the KO-infected mice	did not inhibit the in vivo parasite growth		
CCO[C@H]1O[C@@H]2O[C@@]3(C)CC[C@H]4[C@H](C)CC[C@@H]([C@H]1C)[C@@]24OO3 [α,β-arteether]																			clearance	60-70%
